A word on the pIC50: it is the IC50 on a negative log10 scale, so that one unit is a factor of ten. What is called inhibition is the relative decrease from the control value, in per cent. In general, % Inhibition refers to the change of the read-out against control, counted positive when it falls.

The text below walks through data of patent publication US12036230B2, “PTEN inhibitors for treatment and prevention of bone marrow loss” (NISIBIS, LLC-S, priority 2020, dated 2024).

This assay has as its target T1, Human recombinant PTEN (Homo sapiens, UniProt P60484).
T1 construct: host or cells: Escherichia coli
Briefly: PTEN inhibitor screen: conversion of DiFMUP to DiFMU by recombinant PTEN, spectrofluorometric. It counts as biochemical. As for the experimental part: Candidate PTEN inhibitor compounds were identified and screened for PTEN inhibition in vitro. Human recombinant PTEN purified from Escherichia coli was assayed for conversion of synthetic phosphotyrosine analog 6,8-difluoro-4-methylumbelliferyl phosphate (DiFMUP) to 6,8-difluoro-7-hydroxy-4-methylcoumarin (DiFMU) in the presence of the various candidate PTEN inhibitors. The reaction was carried out at 37° C. for 1 hour in a reaction mixture containing 100 μM of DiFMUP, 50 mM Tris-HCl (pH 8.5), 0.01% bovine serum albumin, 1 mM dithiothreitol, and 2 mM ethylenediaminetetraacetic acid. PTEN activity was measured by spectrofluorometric quantitation of increasing DiFMU over time.

Where [1] appears, read: 100 μM DiFMUP, 37° C., 1 hour, pH 8.5, read-out: IC50.
Setting [2] is: candidate PTEN inhibitor at 10 μM, 100 μM DiFMUP, 37° C., 1 hour, pH 8.5, read-out: % Inhibition.
Setting [3] is: candidate PTEN inhibitor at 10 μM, 100 μM DiFMUP, 37° C., 1 hour, pH 8.5.

pIC50: −log10 of the molar value. Like-named read-outs stand apart in the source and are kept apart here. Numbered stars: 1 amine (or outer) side, 2 acyl side, 3 side chain; on linkers, the order of the positions; unused ones are H or OH. Bridge positions count the residues as written; N and C are the ends. Square brackets hold non-standard residues; d marks the D form. Peptide text beside a SMILES is read from it. Orn = NCCC[C@H](N)C(=O)O; X1 = O=C(CCC[*:2])[*:1]; Mpa = O=C(O)CCS Bounds are passed on as bounds.

T1 sequence (P60484 whole entry): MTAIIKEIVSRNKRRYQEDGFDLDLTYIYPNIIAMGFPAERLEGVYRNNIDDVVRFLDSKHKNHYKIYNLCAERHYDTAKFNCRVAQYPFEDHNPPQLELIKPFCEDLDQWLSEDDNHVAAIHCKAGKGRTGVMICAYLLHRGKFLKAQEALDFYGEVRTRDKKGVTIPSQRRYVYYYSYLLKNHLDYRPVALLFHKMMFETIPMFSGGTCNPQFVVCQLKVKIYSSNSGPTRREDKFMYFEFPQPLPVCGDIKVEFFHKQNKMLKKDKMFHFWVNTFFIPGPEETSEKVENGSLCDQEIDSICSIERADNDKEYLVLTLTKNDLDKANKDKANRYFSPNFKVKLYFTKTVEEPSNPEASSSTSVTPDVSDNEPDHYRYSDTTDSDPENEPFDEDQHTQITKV

For `CC1(C)C(/C=C/C=C/C=C/C=C2\N(CCCCS(=O)(=O)O)c3ccc4ccccc4c3C2(C)C)=[N+](CCCCS(=O)(=O)[O-])c2ccc3ccccc3c21` [indocyanine green acid form], the pIC50 under setting [1] is 5.53. Under setting [2], the inhibition at 10 µM was 74%.
On to hyaluronic acid, for which the pIC50 under setting [1] was below 5.00. Besides, the “% Inhibition” value under setting [3] is recorded as 2%.
As to `O=C(OC[C@H]1O[C@@H](OC(=O)c2cc(O)c(O)c(OC(=O)c3cc(O)c(O)c(O)c3)c2)[C@H](OC(=O)c2cc(O)c(O)c(OC(=O)c3cc(O)c(O)c(O)c3)c2)[C@@H](OC(=O)c2cc(O)c(O)c(OC(=O)c3cc(O)c(O)c(O)c3)c2)[C@@H]1OC(=O)c1cc(O)c(O)c(OC(=O)c2cc(O)c(O)c(O)c2)c1)c1cc(O)c(O)c(OC(=O)c2cc(O)c(O)c(O)c2)c1` [tannic acid], under setting [1], the pIC50 was 6.47. For the same compound, the inhibition at 10 µM under setting [2] was determined as 92%.
As for `CCCCCCCCCCCCCC(=O)OCC(COP(=O)(O)OCC(O)CO)OC(=O)CCCCCCCCCCCCC` (racemic) [DL-dimyristoylphosphatidylglycerol], the pIC50 under setting [1] was 5.40. Besides, the “% Inhibition” value under setting [3] is listed as 71%.
Regarding `Cc1cc(-c2ccc(/N=N/c3c(S(=O)(=O)O)cc4cc(S(=O)(=O)O)cc(N)c4c3O)c(C)c2)ccc1/N=N/c1c(S(=O)(=O)O)cc2cc(S(=O)(=O)O)cc(N)c2c1O` [trypan blue free acid], under setting [1], the negative logarithm of the IC50 (pIC50) was 5.36. Under setting [2], the inhibition at 10 µM was 79%.
In the case of `Cc1ccccc1-c1cc(N2CCN(C)CC2)ncc1N(C)C(=O)C(C)(C)c1cc(C(F)(F)F)cc(C(F)(F)F)c1` [netupitant], the pIC50 under setting [1] is below 5.00. In addition, the inhibition at 10 µM under setting [2] was determined as 12%.
As for `C[C@@H]1C/C=C/C=C/C=C/C=C/[C@H](O[C@@H]2O[C@H](C)[C@@H](O)[C@H](N)[C@@H]2O)C[C@@H]2O[C@](O)(C[C@@H](O)C[C@H]3O[C@@H]3/C=C/C(=O)O1)C[C@H](O)[C@H]2C(=O)O` [natamycin], the pIC50 under setting [1] is below 5.00. Moreover, under setting [2], the inhibition at 10 µM was 3%.
Turning to `Cc1cc2nc3c(=O)[nH]c(=O)nc-3n(C[C@H](O)[C@H](O)[C@H](O)COP(=O)(O)OP(=O)(O)OC[C@H]3O[C@@H](n4cnc5c(N)ncnc54)[C@H](O)[C@@H]3O)c2cc1C` [flavin adenine dinucleotide], the pIC50 under setting [1] was below 5.00. Further, under setting [2], the inhibition at 10 µM is 13%.
On the same counts, the results for `CO[C@H]1C[C@@H]2CC[C@@H](C)[C@@](O)(O2)C(=O)C(=O)N2CCCC[C@H]2C(=O)O[C@H]([C@H](C)C[C@@H]2CC[C@@H](OCCO)[C@H](OC)C2)CC(=O)[C@H](C)/C=C(\C)[C@@H](O)[C@@H](OC)C(=O)[C@H](C)C[C@H](C)/C=C/C=C/C=C/1C` [Everolimus] are below 5.00 and 33%.
Take `COc1ccc(CC2c3cc(OC)c(OC)cc3CC[N+]2(C)CCC(=O)OCCCCCOC(=O)CC[N+]2(C)CCc3cc(OC)c(OC)cc3C2Cc2ccc(OC)c(OC)c2)cc1OC` (stereo not shown) [atracurium besylate]: under setting [1], the pIC50 was below 5.00. Further, the inhibition at 10 µM under setting [2] came out at 16%.
With Verteporfin, the pIC50 under setting [1] was 5.24. Besides, the “% Inhibition” value under setting [3] is 98%.
With `CO[C@H]1C[C@@H]2CC[C@@H](C)[C@@](O)(O2)C(=O)C(=O)N2CCCC[C@H]2C(=O)O[C@H]([C@H](C)C[C@@H]2CC[C@@H](O)[C@H](OC)C2)CC(=O)[C@H](C)/C=C(\C)[C@@H](O)[C@@H](OC)C(=O)[C@H](C)C[C@H](C)/C=C/C=C/C=C/1C` [sirolimus], under setting [1], the pIC50 was below 5.00. Also, the inhibition at 10 µM under setting [2] amounted to 3%.
For `Clc1ccc(C(c2ccccc2Cl)C(Cl)Cl)cc1` (stereo not shown) [mitotane], the pIC50 under setting [1] is below 5.00. Also, the inhibition at 10 µM under setting [2] is 13%.
As for `CC(C)(C)CC(C)(C)c1cc(Cc2cc(C(C)(C)CC(C)(C)C)cc(-n3nc4ccccc4n3)c2O)c(O)c(-n2nc3ccccc3n2)c1` [bisoctrizole], under setting [1], the pIC50 was below 5.00. For the same compound, the inhibition at 10 µM under setting [2] amounted to 5%.
With `CC[C@H](C)[C@@H]1NC(=O)[C@H](Cc2ccc(OC)cc2)NC(=O)CCCSC[C@@H](C(=O)N2CCC[C@H]2C(=O)N[C@@H](CC(C)C)C(=O)NCC(N)=O)NC(=O)[C@H](CC(N)=O)NC(=O)[C@H](CCC(N)=O)NC1=O` [carbetocin] (Y(Me)IQNCPLG-NH2; linker N-5 via X1), the pIC50 under setting [1] was below 5.00. Also, under setting [2], the inhibition at 10 µM is 1%.
`CCC[C@H](NC(=O)[C@@H]1[C@H]2CCC[C@H]2CN1C(=O)[C@@H](NC(=O)[C@@H](NC(=O)c1cnccn1)C1CCCCC1)C(C)(C)C)C(=O)C(=O)NC1CC1` [telaprevir]: the pIC50 was below 5.00. Moreover, under “pH 8.5”, the inhibition at 10 µM amounted to 3%.
Regarding `CCC1=C[C@@H]2CN(C1)Cc1c([nH]c3ccccc13)[C@@](C(=O)OC)(c1cc3c(cc1OC)N(C)[C@H]1[C@@](O)(C(=O)OC)[C@H](OC(C)=O)[C@]4(CC)C=CCN5CC[C@]31[C@@H]54)C2` [vinorelbine], under setting [1], the pIC50 was below 5.00. For the same compound, the inhibition at 10 µM under setting [2] amounted to 19%.
On to `CC(C)c1c(C(=O)Nc2ccccc2)c(-c2ccccc2)c(-c2ccc(F)cc2)n1CC[C@@H](O)C[C@@H](O)CC(=O)O` [atorvastatin], for which the pIC50 under setting [1] was below 5.00. Under setting [2], the inhibition at 10 µM turned out to be 4%.
On to `O=C1CCCC(=O)C1C(=O)c1ccc(C(F)(F)F)cc1[N+](=O)[O-]` [nitisinone], for which the pIC50 under setting [1] is below 5.00. Moreover, under setting [2], the inhibition at 10 µM amounted to 1%.
As for `CC(=O)O[C@H]1C[C@@H]2CC[C@@H]3[C@H](CC[C@@]4(C)[C@H]3C[C@H]([N+]3(C)CCCCC3)[C@@H]4OC(C)=O)[C@@]2(C)C[C@@H]1[N+]1(C)CCCCC1` [pancuronium], the pIC50 under setting [1] was below 5.00. Also, the inhibition at 10 µM under setting [2] stood at 11%.
`O=C(O)CN(CC(=O)O)Cc1cc2c(cc1O)Oc1cc(O)c(CN(CC(=O)O)CC(=O)O)cc1C21OC(=O)c2ccccc21` [Oftasceine]: the pIC50 under setting [1] is below 5.00. For the same compound, the inhibition at 10 µM under setting [2] is 37%.
As for `C[C@H](N)C(=O)NCC(=O)N[C@H]1CSSC[C@@H](C(=O)O)NC(=O)[C@H](CO)NC(=O)[C@H]([C@@H](C)O)NC(=O)[C@H](Cc2ccccc2)NC(=O)[C@H]([C@@H](C)O)NC(=O)[C@H](CCCCN)NC(=O)[C@H](Cc2c[nH]c3ccccc23)NC(=O)[C@H](Cc2ccccc2)NC(=O)[C@H](Cc2ccccc2)NC(=O)[C@H](CC(N)=O)NC(=O)[C@H](CCCCN)NC1=O` [somatostatin], the pIC50 is below 5.00. Moreover, the inhibition at 10 µM (pH 8.5) is 5%.
On to `CO[C@H]1O[C@H](COS(=O)(=O)O)[C@@H](O[C@@H]2O[C@@H](C(=O)O)[C@@H](O[C@H]3O[C@H](COS(=O)(=O)O)[C@@H](O[C@@H]4O[C@H](C(=O)O)[C@@H](O[C@H]5O[C@H](COS(=O)(=O)O)[C@@H](O)[C@H](O)[C@H]5NS(=O)(=O)O)[C@H](O)[C@H]4O)[C@H](OS(=O)(=O)O)[C@H]3NS(=O)(=O)O)[C@H](O)[C@H]2OS(=O)(=O)O)[C@H](O)[C@H]1NS(=O)(=O)O` [Fondaparinux], for which the pIC50 under setting [1] was 5.56. For the same compound, the inhibition at 10 µM under setting [2] was found to be 80%.
As to `CCOc1ccc(C[C@H]2NC(=O)CCSSC[C@@H](C(=O)N3CCC[C@H]3C(=O)N[C@@H](CCCN)C(=O)NCC(N)=O)NC(=O)[C@H](CC(N)=O)NC(=O)[C@H]([C@@H](C)O)NC(=O)[C@H]([C@@H](C)CC)NC2=O)cc1` [atosiban] ([Mpa][dY](Et)ITNCP[Orn]G-NH2; disulfide 1-6), the pIC50 was below 5.00. In addition, the inhibition at 10 µM under setting [2] was found to be 12%.
As for `CCCCCCCC/C=C\CCCCCCCC(=O)O[C@H](COC(=O)CCCCCCCCCCCCCCC)COP(=O)(O)OCC(O)CO` (mixture of isomers) [1-palmitoyl-2-oleoyl-sn-glycero-3-(phospho-rac-(1-glycerol))], under setting [1], the pIC50 is 5.75. For the same compound, under setting [2], the inhibition at 10 µM stood at 85%.
As for Candicidin, under setting [1], the pIC50 is 5.79. The “% Inhibition” value under setting [3] is on record as 91%.
For `C=C1CC[C@H]2[C@@H](/C=C(\C)C(=O)[C@@]3(OC(C)=O)C[C@H](C)[C@H](OC(=O)c4ccccc4)[C@@H]3[C@H]1OC(C)=O)C2(C)C` [diacetyl benzoyl lathyrol], the pIC50 under setting [1] is below 5.00. Moreover, the “% Inhibition” value under setting [3] was determined as 25%.
For Cyanocobalamin, in that order: 5.51 and 85%.
Regarding `C[C@@H]1CC(=O)NN=C1c1ccc(NN=C(C#N)C#N)cc1` [Levosimendan], the pIC50 under setting [1] was below 5.00. Besides, the inhibition at 10 µM under setting [2] worked out at 24%.
As to `C#C[C@]1(O)CC[C@H]2[C@@H]3CCC4=CC(=O)CC[C@@H]4[C@H]3C(=C)C[C@@]21CC` [etonogestrel], the pIC50 under setting [1] was below 5.00. The inhibition at 10 µM under setting [2] stood at 2%.
As to `CC(C)c1nc(CN(C)C(=O)N[C@@H](CCN2CCOCC2)C(=O)N[C@H](CC[C@H](Cc2ccccc2)NC(=O)OCc2cncs2)Cc2ccccc2)cs1` [Cobicistat], the pIC50 under setting [1] is below 5.00. Also, under setting [2], the inhibition at 10 µM is 24%.
For the compound `CCc1c(Cl)c(O)c(Cl)c(O)c1C(=O)O[C@H]1[C@H](O)[C@H](OC)[C@H](OC/C2=C\C=C\C[C@H](O)/C(C)=C/[C@H](CC)[C@@H](O[C@@H]3OC(C)(C)[C@@H](OC(=O)C(C)C)[C@H](O)[C@@H]3O)/C(C)=C/C(C)=C/C[C@@H]([C@@H](C)O)OC2=O)O[C@@H]1C` [fidaxomicin], the pIC50 under setting [1] is below 5.00. Also, the inhibition at 10 µM under setting [2] turned out to be 11%.
